Data on 3 compounds can be found in PMC4103815, “P-Glycoprotein Mediated Efflux Limits the Transport of the Novel Anti-Parkinson's Disease Candidate Drug FLZ across the Physiological and PD Pathological In Vitro BBB Models” (PLoS ONE, 2014).

The test system of one data set is PD rCMECs. Put plainly: Cell viability by MTT, PD rCMECs. Format: cell-based, rat. The note with it: 24 h; FLZ 1 to 50 µM, zosuquidar 5 µM, FTC 10 µM. As to the method: (§1) To investigate the effects of FLZ on the growth of normal and PD rCMECs monolayers, a cell proliferation assay was performed. […] Therefore, in all following experiments, we used FLZ (1, 5 and 10 µM), zosuquidar (5 µM) and FTC (10 µM) as standard treatment.
(§2) Supplementary file pone.0102442.s001.tif: Figure S1 The cytotoxicity of FLZ (A) and inhibitors (B) in rat cerebral microvessel endothelial cells. rCMECs were exposed to the indicated concentration of FLZ (A) and transport inhibitors zosuquidar and FTC for 24 h. Each point represents the mean ± SD of three determinations. Each experiment was performed in three times. (TIF) Click here for additional data file.

In another data set the test system is normal rCMECs. Put plainly: Cell viability by MTT, normal rCMECs. In kind it is cell-based, rat. The note with it: 24 h; FLZ 1 to 50 µM, zosuquidar 5 µM, FTC 10 µM. As to the method: as §1, §2
For data set [1], the system named is PD pathological in vitro BBB model. Put plainly: Sodium fluorescein permeability, PD pathological co-culture BBB model. The conditions noted are these: co-culture model under Parkinson's conditions. Format: in vitro ADME, rat. As to the method: (§3) The flux of sodium fluorescein (NaF) across the BBB models was determined as previously described. Prior to transport studies, culture media from the top and bottom compartments were replaced with HBSS. 100 µg/ml Na-F (MW: 376 Da) was added to the upper inserts of the Transwell system. At 30, 60, 90 and 120 min, 50 µl samples were taken from the acceptor compartment and immediately replaced with fresh buffer. The concentrations of the fluorescein in samples from the upper to lower compartments were determined by fluorescence multiwell plate reader (excitation wavelength: 485 nm; emission wavelength: 535 nm). Based on the rate of influx of sodium fluorescein into the bottom compartment, permeability coefficients were calculated.

Data set [2] concerns physiological in vitro BBB model. Put plainly: Sodium fluorescein permeability, physiological co-culture BBB model. In kind it is in vitro ADME, rat. The conditions noted are these: co-culture model under normal conditions. As to the method:
as §3

On to `COc1ccc2c3c([nH]c2c1)[C@H](C=C(C)C)N1C(=O)[C@@H]2CCCN2C(=O)[C@@H]1C3` [FTC, Fumitremorgin C], for which the “viability of PD rCMECs (MTT)” value in the data set on PD rCMECs was “did not effect”. The “viability of normal rCMECs (MTT)” value with normal rCMECs is “did not effect”.

As to `O[C@@H](COc1cccc2ncccc12)CN1CCN([C@@H]2c3ccccc3[C@@H]3[C@H](c4ccccc42)C3(F)F)CC1` [zosuquidar], the “viability of PD rCMECs (MTT)” value in the data set with PD rCMECs is recorded as “did not effect”. For the same compound, the “viability of normal rCMECs (MTT)” value with normal rCMECs is recorded as “did not effect”.

Turning to `O=C([O-])c1ccccc1-c1c2ccc(=O)cc-2oc2cc([O-])ccc12.[Na+].[Na+]` [NaF, sodium fluorescein], the “paracellular Papp of NaF” value was 2.18±0.26 10^−6 cm/s in data set [1] and 1.92±0.19 10^−6 cm/s in data set [2].
